Results on ten substances are retold here after patent US20190292223A1, “SAP AND PEPTIDOMIMETICS FOR TREATMENT OF EYE DISEASE” (Arch Biosurgery, Inc., priority 2018, published 2019).

Data set [1] concerns activated retinal microglial cells. Description: Lipopolysaccharide ocular inflammation model, 1 μl LPS alone or with SAP intravitreally, sacrifice after 24 hours (Example 2). The class given is in vivo, Sprague-Dawley rats. The protocol:
Adult white Sprague-Dawley rats with a weight of between 200 and 240 grams were housed in a 12 hours light/12 hours night cycle with free access to food and water. The animals were randomly divided into a study or control groups.
Intravitreal injections, immunohistochemical staining and assessment of intraocular inflammation were generally performed as described in Example 1.
1 μl sterile lipopolysaccharide (LPS; from S. typhimurium; catalog no. L-7261; Sigma-Aldrich, St. Louis, Mo.) either alone or in combination with (RADA)2 (SEQ ID NO: 88) solutions at 0.1%, 1.0%, and 10.0% were administered via direct intravitreal injections. The animals were sacrificed 24 hours after treatment. The experiments were repeated at least 5 times.
In some experiments, different SAP, including S2 (H2N(EARA)COOH; SEQ ID NO: 92), S3 (H2N(RARA)CONH2; SEQ ID NO: 413), and S5 (H2N(EARA)2CONH2; SEQ ID NO: 414), were evaluated as described above for (RADA)2 (SEQ ID NO: 88).
Finally, a conjugate of an EARA based SAP and a tissue-specific motif (MSCRAMM; SEQ ID NO: 141) was also evaluated using this lipopolysaccharide ocular inflammation model. Experiments were performed as described above for (RADA)2 (SEQ ID NO: 88). Briefly, 1 μl sterile lipopolysaccharide (LPS; from S. typhimurium; catalog no. L-7261; Sigma-Aldrich, St. Louis, Mo.) either alone or in combination with MSCRAMM(EARA)4 (SEQ ID NO: 432) solutions at 1.0%, and 3.0% were administered via direct intravitreal injections. The animals were sacrificed 24 hours after treatment. The experiments were repeated three times for each SAP conjugate concentration (that is, n=3 for 1%; n=3 for 3%).

On the set-up of data set [2]: species or system Sprague-Dawley rats. The settings on record: rat, in vivo. The protocol: The fate of SAP upon application to the eye was investigated. Specifically, the ability of SAP to reach the retina via application of eye drop solutions of the SAP to the cornea was evaluated using an SAP-Cy5 conjugate.
Adult white Sprague-Dawley rats weighing between 200 and 240 grams were housed in a 12 hour light/12 hour night cycle with free access to food and water. The animals were randomly divided into experimental or control groups.
Conjugates of Cy5.5 and RADA (SEQ ID NO: 57), Cy5.5 and RADARADA ((RADA)2; SEQ ID NO: 88), and Cy5.5 and H2N(RADA)4CONH2 (SEQ ID NO: 433) were prepared according to a modified protocol of Chen X., et al., Cancer Res., 64(21): 8009-8014 (2004).
In one experiment, RADA-4-Cy5.5 conjugate was prepared as follows: 0.5 mg of H2N(RADA)4CONH2 was dissolved in 50 μL of DMSO to a final concentration of […] in DMSO. The solution was mixed with 20 μL of diethyl isopropyl amine (DIPEA) to adjust the pH to 12. A solution of Cy5.5 dyes (1.0 mg in 20 μL of DMSO) was added at room temperature for conjugation and the mixture was periodically vortexed over 2 hours.
In some experiments, the RADA-4 solution was prepared with water as the solvent, for example: to a solution of RADA-4 (1.8 mg of H2N(RADA)4CONH2 (SEQ ID NO: 433) in 500 μL of Milli-Q water), 1 μL of Diisopropyl ethylene amine (DIPEA) was added to obtain pH 8 from 4. To prepare a working Cy5.5 stock, 165 μL of Milli-Q water was added to 165 μL Cy5.5 to make a 6.59×10^−7 M solution. The final conjugate was prepared by mixing equal volumes (165 μL) of the buffered (pH 8) (RADA)4 solution and Cy5.5 solution at room temperature for 2 hours.
Eye drops were applied to both eyes of rats. The experimental group of rats were administered 2 μL of Cy5.5-(RADA)4 conjugate via drops, while control rats were administered Cy5.5 only via drops. The experiments were repeated using Cy5.5 conjugated to RADA (Cy5.5(RADA)COOH; SEQ ID NO: 442) and Cy5.5 conjugated to (RADA)2 (Cy5.5(RADA)2COOH; SEQ ID NO: 444).
The rats were sacrificed 24 hours or 3 days post treatment. The eye balls of the rats were harvested and were then fixed in 4% paraformaldehyde (PFA) overnight. Excessive PFA was washed with 0.1M phosphate buffer (0.1MPB) 3 times (30 minutes each). The eyeballs were then dehydrated with 30% sucrose solution (30 g sucrose in 100 mL of 0.1 MPB) overnight, while replenishing the sucrose solution once for at least 6 hours. As necessary, the shape of the eyeballs was reformed with O.C.T. (Optimal Cutting Temperature compound; TISSUE-TEK® O.C.T.; CA) by injecting through the optic nerve. Each eye was embedded entirely in a mount with O.C.T. in liquid nitrogen to form frozen blocks. Blocks containing the eye samples were then sectioned at 20 microns and were placed on charged slides and allowed to dry. The slides were then rinsed to remove excess OCT and cover-slipped. The fate of the Cy5.5-RADA conjugate was investigated by tracing the color of the Cy5.5 in the eye. Visualization was performed with light microscopy and photographs were taken with a SPOT camera affixed to the Zeiss microscope.

Data set [3] relates to activated retinal microglial cells. Description: Lipopolysaccharide ocular inflammation model, intravitreal co-injection, quantification of activated retinal microglial cells (Example 1). The format is in vivo, Sprague-Dawley rats. To be noted: for JEB # / TOTAL AREA WEIGHT (total retinal area weight-averaged density; amount of inflammation): 0.5% RADA + LPS intravitreal. Set-up: TOTAL AREA WEIGHT (total retinal area weight-averaged density; amount of inflammation) / JEB #: unit not given here. The protocol:
The anti-inflammatory effect of SAP was examined using the lipopolysaccharide ocular inflammation model, and measurement of microglial cell activation was assessed as an indicator of inflammation. Morphological changes in macrophage cells, such as microglial cells, can be used as a marker of the presence and extent of inflammation. Methods for identifying and scoring variations in microglial cell morphology in response to inflammatory stimuli are described in the art (see, for example, Jonas, et al., PLoS ONE 7(2): e30763 (2012)).
Adult white Sprague-Dawley rats weighing between 200 and 240 grams were housed in a 12 hour light/12 hour night cycle with free access to food and water. The animals were randomly divided into study or control groups.
Animals were anesthetized by an intraperitoneal injection of xylazine 2% (5 mg/kg body weight) and ketamine 10% (100 mg/kg body weight). Topical anesthesia was additionally provided by repeated administration of proparacaine (0.5%) drops onto the cornea. A thorough disinfection of the ocular surface, the lid margins and the periocular skin was carried out with iodine 5% solution.
Using a glass pipette pulled to the size of a 30 gauge needle and attached to a syringe, 2 μl of sterile, pyrogen-free saline containing lipopolysaccharides from Salmonella typhimurium (catalog no. L-7261; Sigma-Aldrich, St. Louis, Mo.) was intravitreally injected.
For the primary experiment, the study included 40 Sprague-Dawley rats. All intravitreal injection volumes were of 2 μl, to reduce the effects of increased ocular pressure. All intravitreal injections of lipopolysaccharides (LPS) volumes were 4 μg at a concentration of 2 μg/μL.
The control groups (n=20) received either an intravitreal saline injection (n=5), lipopolysaccharide (LPS) alone ([…]), or no injection as a normal control group (n=5). Animals in the SAP study group (n=15) also received the self-assembling peptide (amino acid sequence RADARADARADARADA; “RADA-16”) in concentrations of 0.5% of SAP/2 μL.
At one, three and seven days after the injections, the animals were sacrificed, and the globes were immunohistochemically stained and histomorphometrically examined. The contralateral eye from the LPS group was also examined.
The eyes were embedded with Optimal Cutting Temperature compound (Tissue-Tek® O.C.T., Ted Pella, Inc. Redding, Calif.) after the lenses were removed. The globes were sectioned and placed on subbed slides. After being washed in 0.01M phosphate buffered saline for 10 minutes, the sections (15 μm) were immersed in a blocking solution containing 0.3% triton, 2.5% bovine serum albumin (BSA; Proliant Co, Ankeny, Iowa, USA) and 2% goat serum for 30 minutes. The sections were incubated in a primary antibody diluted solution overnight at 4° C., containing rabbit anti-IBA1 (Ionized calcium Binding Adaptor molecule 1; 1:500; Wako Pure Chemical Industries, Ltd. Osaka, Japan) and mouse anti rat CD 68 (ED1) (1:1000; AbD Serotech, D-40470 Dusseldorf, Germany). The sections were then washed in 0.01M phosphate buffered saline (10 minutes, 3 times), and incubated with secondary antibody diluted solution at room temperature for 2 hours (Goat-anti-rabbit 568, Goat-anti-mouse Alexa 488, (Invitrogen, Carlsbad, Calif., 1:400)). The slides were then washed in 0.01M phosphate buffered saline (10 minutes, 3 times) and cover slipped with fluorescein mounting medium with DAPI (4′,6-diamidin-2′-phenylindol-dihydrochloride; Dako Ltd, Glostrup, Denmark). All images were taken under a 20× objective with a Carl Zeiss Flour microscope (Carl Zeiss Inc. Oberkochen, Germany) fitted with a spot camera. All illumination levels were fixed during image acquisition.
The amount of intraocular inflammation was assessed by quantification of immunohistochemically labeled activated retinal microglial cells, which function as the immune mediators of the central nervous system. […]

Setting [4] is: 1.0% and 3.0% solutions with LPS, 24 hours.

Cy5.5 = Cy5.5 dye

“MSCRAMM(EARA)4 (MSCRAMMEARAEARAEARAEARA) [conjugate of an EARA based SAP and a tissue-specific motif (MSCRAMM]”: in data set [1] (setting [4]), the ED1 reactivity result is reported as “no evidence of ED1 reactivity”, the “activation of microglia (JEB score)” value is ≤ 4, the “inflammation in treated animals” value was “no inflammation” and the “signs of retinal inflammation compared to control (LPS only)” value is listed as “reduction”.
Take “H2N(EARA)2CONH2 (H-EARAEARA-NH2) [SAP S5]”: the “signs of retinal inflammation compared to control” value in data set [1] (along with LPS, FIG. 5) was “marked reduction”.
On to H2N(RARA)CONH2 (H-RARA-NH2) [SAP S3], for which, in data set [1] (along with LPS, FIG. 5), the LPS induced inflammation entry is listed as “reduced LPS induced inflammation to normal levels” and the “signs of retinal inflammation compared to control” value is reported as “marked reduction”.
Cy5.5(RADA)4CONH2: in data set [2], the localization entry is given as “localize to the retina”, the “pink coloration (Cy5.5) in the retina” value was “pink coloration was observed throughout the outer retina” and the “transport across the cornea / localization” value was “localize within the retina”.
As to “Cy5.5(RADA)2COOH ({Cy5.5}-RADARADA-OH) [Cy5.5 conjugated to RADARADA]”, the localization entry in data set [2] is given as “localize to the retina”.
In the case of RADARADARADARADA, the “JEB #” value in data set [3] (Day 1) is 11.63; in data set [3] (Day 3) it was 8.502; in data set [3] (Day 7), 9.158. Besides, the “TOTAL AREA WEIGHT (total retinal area weight-averaged density; amount of inflammation)” value in data set [3] (Day 1) worked out at 74.99; in data set [3] (Day 1, listed as SAP), 75.0±26.6; in data set [3] (Day 3), 55.91; in data set [3] (Day 3, listed as SAP), 55.9±45.9; in data set [3] (Day 7), 52.66; in data set [3] (Day 7, listed as SAP) it was 52.7±47.7. For the same substance, the “amount of inflammation compared to normal or saline injected controls” value in data set [3] (0.5% SAP + LPS) is given as “no significant difference”. For the same substance, the “level of inflammation compared to LPS-only control group” value in data set [3] (0.5% SAP + LPS) was “significantly (P<0.001) lower”. Besides, the “density of activated retinal microglial cells compared to LPS controls” value in data set [3] (SAP + LPS vs LPS-only) is recorded as “significantly lower”. The “signs of retinal inflammation” value in data set [3] (intraocular SAP along with LPS) is recorded as “marked reduction”.
As for Cy5.5 [reference compound], in data set [2], the “pink coloration (Cy5.5) in the retina” value was “no pink coloration was observed in any part of the retina or optic nerve head” and the “transport across the cornea / localization” value was “not transported across the cornea”.
Turning to H2N(EARA)COOH (H-EARA-OH) [SAP S2], in data set [1] (along with LPS, FIG. 5), the “signs of retinal inflammation compared to control” value is “marked reduction”.
On to “Cy5.5(RADA)COOH ({Cy5.5}-RADA-OH) [Cy5.5 conjugated to RADA]”, for which the localization entry in data set [2] is “localize to the retina”.
For the substance RADARADA [(RADA)2], in data set [1] (all concentrations (0.1%, 1.0%, 10.0%), 24 hours, FIG. 4), the “signs of retinal inflammation compared to control (LPS alone)” value was “marked reduction”. Further, the “density of activated retinal microglial cells compared to controls (LPS alone)” value in data set [1] (combination injection with LPS, 24 hours) is on record as “significantly lower”.
